# Measured values taken from PubChem BioAssay (NCI).
#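 Grown in 96-well plates, cells were treated for 48 hours with each compound at five concentrations. Insufficient inhibition: endpoint recorded as highest concentration tested. The concentration for full growth arrest is given as TGI.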
# Tested on: MDA-MB-435
# Test: NCI tumour cell line growth inhibition, 48 h
row,SMILES,TGI [µM]
1,CC1(C)OC[C@@H]([C@H](O)C2C=CC(=O)S2)O1 (stereo not given in full),> 100
2,CCOC(=O)Cc1ccc(Nc2nc3ccccc3nc2C(=O)OCC)cc1,> 100
3,CC(C)(C)[Si](C)(C)Oc1ccc(C2CNC(=O)C23CCC(=O)N3Cc2ccccc2)cc1 (stereo not given),29.9

# Tested on: NCI-H226 lung
# Test: NCI tumour cell line growth inhibition, 48 h
row,SMILES,TGI [µM]
1,COC(=O)[C@@]1(C)/C(=N/NS(=O)(=O)c2ccc(C)cc2)CCC[C@@H]1C,> 100
2,COc1ccc(OC)c(/C=C(/C#N)c2ccccc2)c1,> 100
3,COC(=O)C(C(=O)Cc1ccccc1[N+](=O)[O-])C(=O)OC,> 100
4,CCCCC/C=C1\CCC(CN(C)C)C1=O (stereo not given),29.5
5,O=C(Cn1c(-c2ccccc2)cc2ccccc21)N1CCCC1,> 100
6,Cc1ccc(Cl)c2c(=O)c3ccc(N)cc3sc12,48.4
7,C=CCN1CCC(O)(c2cc(C(=O)OCC)[nH]c2-c2cc(C)no2)C1 (stereo not given),> 100
8,CNCCCn1c2ccccc2c2c3c(c(-c4ccsc4)cc21)C(=O)NC3=O,23.6
9,C=C(C)C1CCC2(C)CC1c1c(c(C)cc3c1[nH]c1ccccc13)O2 (stereo not given),> 25
10,CC(C)(C)OC/C=C(/CO)[C@@H]1C=C[C@H](O)C1,> 100
11,CN(CCN(C)C(=O)CCn1cc(F)c(=O)[nH]c1=O)C(=O)CCn1cc(F)c(=O)[nH]c1=O,> 100
12,CCOC1c2cc(C(C)C)c(O)c(O)c2[C@@]23CCCC(C)(C)C2C1OC3=O (stereo not given in full),> 100
13,C=CN1C(=O)[C@H](Oc2ccccc2)[C@@H]1c1ccccc1,> 100
14,CS(=O)(=O)c1ccc(-c2cc(-c3ccc(S(C)(=O)=O)cc3)[n+](-c3cc(-c4ccccc4)c([O-])c(-c4ccccc4)c3)c(-c3ccc(S(C)(=O)=O)cc3)c2)cc1,> 100
15,Nc1ccn([C@H]2CO[C@@H](CO)[C@@H]2O)c(=O)n1,> 100
16,COc1ccc(C(C#N)NNC(=O)Cc2ccccc2)cc1OC (stereo not given),> 100
17,O=C(CC(C(=O)c1ccsc1)c1ccccc1)c1ccccc1 (stereo not given),> 100
18,CC(C)=CC1CC(=[N+]=[N-])C(=O)C1(C)C (stereo not given),> 100
19,COc1cccc(C2CC23C(=O)NC(=O)NC3=O)c1 (stereo not given),> 100
20,O=C(CSc1c2ccccc2nc2ccccc12)Nc1ccccc1-c1ccccc1NC(=O)CSc1c2ccccc2nc2ccccc12,> 80.5
21,CC1(C)OC[C@@H]([C@H](O)C2C=CC(=O)S2)O1 (stereo not given in full),> 100
22,CCOC(=O)Cc1ccc(Nc2nc3ccccc3nc2C(=O)OCC)cc1,> 100
23,O=S(=O)(c1ccccc1)N1N=C2c3ccccc3CCC[C@H]2C1c1ccccc1 (stereo not given in full),> 100
24,CCOC(=O)/C(=C/c1ccc(N(C)C)cc1)N(CC)CC,94.2
25,CC(=O)O[C@H]1CC[C@@]2(C)C(=CC[C@H]3[C@@H]4C/C(=C\c5ccc(N(C)C)cc5)[C@H](OC(C)=O)[C@@]4(C)CC[C@@H]32)C1,33.4
26,CC(C)(C)[Si](C)(C)Oc1ccc(C2CNC(=O)C23CCC(=O)N3Cc2ccccc2)cc1 (stereo not given),44.8

# Tested on: NCI-H460 lung
# Test: NCI tumour cell line growth inhibition, 48 h
row,SMILES,TGI [µM]
1,COC(=O)[C@@]1(C)/C(=N/NS(=O)(=O)c2ccc(C)cc2)CCC[C@@H]1C,> 100
2,COc1ccc(OC)c(/C=C(/C#N)c2ccccc2)c1,> 100
3,COC(=O)C(C(=O)Cc1ccccc1[N+](=O)[O-])C(=O)OC,> 100
4,CCCCC/C=C1\CCC(CN(C)C)C1=O (stereo not given),> 100
5,O=C(Cn1c(-c2ccccc2)cc2ccccc21)N1CCCC1,> 100
6,Cc1ccc(Cl)c2c(=O)c3ccc(N)cc3sc12,> 100
7,C=CCN1CCC(O)(c2cc(C(=O)OCC)[nH]c2-c2cc(C)no2)C1 (stereo not given),> 100
8,CC1CN=C(N(C(=O)Nc2ccc(Cl)c(Cl)c2)c2ccccc2)S1 (stereo not given),> 100
9,C=C(C)C1CCC2(C)CC1c1c(c(C)cc3c1[nH]c1ccccc13)O2 (stereo not given),> 25
10,CC(C)(C)OC/C=C(/CO)[C@@H]1C=C[C@H](O)C1,> 100
11,CN(CCN(C)C(=O)CCn1cc(F)c(=O)[nH]c1=O)C(=O)CCn1cc(F)c(=O)[nH]c1=O,> 100
12,CCOC1c2cc(C(C)C)c(O)c(O)c2[C@@]23CCCC(C)(C)C2C1OC3=O (stereo not given in full),> 100
13,C=CN1C(=O)[C@H](Oc2ccccc2)[C@@H]1c1ccccc1,> 100
14,CS(=O)(=O)c1ccc(-c2cc(-c3ccc(S(C)(=O)=O)cc3)[n+](-c3cc(-c4ccccc4)c([O-])c(-c4ccccc4)c3)c(-c3ccc(S(C)(=O)=O)cc3)c2)cc1,> 100
15,Nc1ccn([C@H]2CO[C@@H](CO)[C@@H]2O)c(=O)n1,> 100
16,COc1ccc(C(C#N)NNC(=O)Cc2ccccc2)cc1OC (stereo not given),> 100
17,O=C(CC(C(=O)c1ccsc1)c1ccccc1)c1ccccc1 (stereo not given),> 100
18,CC(C)=CC1CC(=[N+]=[N-])C(=O)C1(C)C (stereo not given),> 100
19,COc1cccc(C2CC23C(=O)NC(=O)NC3=O)c1 (stereo not given),> 100
20,O=C(CSc1c2ccccc2nc2ccccc12)Nc1ccccc1-c1ccccc1NC(=O)CSc1c2ccccc2nc2ccccc12,> 88.4
21,CC1(C)OC[C@@H]([C@H](O)C2C=CC(=O)S2)O1 (stereo not given in full),> 100
22,CCOC(=O)Cc1ccc(Nc2nc3ccccc3nc2C(=O)OCC)cc1,> 100
23,O=S(=O)(c1ccccc1)N1N=C2c3ccccc3CCC[C@H]2C1c1ccccc1 (stereo not given in full),> 100
24,CC1CN=C(N(C(=O)Nc2ccccc2)c2ccc(Cl)c(Cl)c2)S1 (stereo not given),53.1
25,CC(=O)O[C@H]1CC[C@@]2(C)C(=CC[C@H]3[C@@H]4C/C(=C\c5ccc(N(C)C)cc5)[C@H](OC(C)=O)[C@@]4(C)CC[C@@H]32)C1,18.2
26,CC(C)(C)[Si](C)(C)Oc1ccc(C2CNC(=O)C23CCC(=O)N3Cc2ccccc2)cc1 (stereo not given),20.8

# Tested on: NCI/ADR-RES ovarian
# Test: NCI tumour cell line growth inhibition, 48 h
row,SMILES,TGI [µM]
1,O=C(Cn1c(-c2ccccc2)cc2ccccc21)N1CCCC1,> 100
2,Cc1ccc(Cl)c2c(=O)c3ccc(N)cc3sc12,35
3,C=CCN1CCC(O)(c2cc(C(=O)OCC)[nH]c2-c2cc(C)no2)C1 (stereo not given),> 100
4,CC1CN=C(N(C(=O)Nc2ccc(Cl)c(Cl)c2)c2ccccc2)S1 (stereo not given),> 100
5,CNCCCn1c2ccccc2c2c3c(c(-c4ccsc4)cc21)C(=O)NC3=O,2.19
6,CC(C)(C)OC/C=C(/CO)[C@@H]1C=C[C@H](O)C1,> 100
7,Nc1ccn([C@H]2CO[C@@H](CO)[C@@H]2O)c(=O)n1,> 100
8,O=C(CC(C(=O)c1ccsc1)c1ccccc1)c1ccccc1 (stereo not given),> 100
9,CC1(C)OC[C@@H]([C@H](O)C2C=CC(=O)S2)O1 (stereo not given in full),83.6
10,CCOC(=O)Cc1ccc(Nc2nc3ccccc3nc2C(=O)OCC)cc1,> 100
11,CC1CN=C(N(C(=O)Nc2ccccc2)c2ccc(Cl)c(Cl)c2)S1 (stereo not given),> 100
12,CC(=O)O[C@H]1CC[C@@]2(C)C(=CC[C@H]3[C@@H]4C/C(=C\c5ccc(N(C)C)cc5)[C@H](OC(C)=O)[C@@]4(C)CC[C@@H]32)C1,35.4
13,CC(C)(C)[Si](C)(C)Oc1ccc(C2CNC(=O)C23CCC(=O)N3Cc2ccccc2)cc1 (stereo not given),26.7

# Tested on: OVCAR-4 ovarian
# Test: NCI tumour cell line growth inhibition, 48 h
row,SMILES,TGI [µM]
1,COC(=O)[C@@]1(C)/C(=N/NS(=O)(=O)c2ccc(C)cc2)CCC[C@@H]1C,> 100
2,COc1ccc(OC)c(/C=C(/C#N)c2ccccc2)c1,81.5
3,COC(=O)C(C(=O)Cc1ccccc1[N+](=O)[O-])C(=O)OC,> 100
4,CCCCC/C=C1\CCC(CN(C)C)C1=O (stereo not given),42.2
5,O=C(Cn1c(-c2ccccc2)cc2ccccc21)N1CCCC1,> 100
6,C=CCN1CCC(O)(c2cc(C(=O)OCC)[nH]c2-c2cc(C)no2)C1 (stereo not given),> 100
7,CC1CN=C(N(C(=O)Nc2ccc(Cl)c(Cl)c2)c2ccccc2)S1 (stereo not given),> 100
8,CNCCCn1c2ccccc2c2c3c(c(-c4ccsc4)cc21)C(=O)NC3=O,3.22
9,C=C(C)C1CCC2(C)CC1c1c(c(C)cc3c1[nH]c1ccccc13)O2 (stereo not given),> 25
10,CC(C)(C)OC/C=C(/CO)[C@@H]1C=C[C@H](O)C1,> 100
11,CN(CCN(C)C(=O)CCn1cc(F)c(=O)[nH]c1=O)C(=O)CCn1cc(F)c(=O)[nH]c1=O,> 100
12,CS(=O)(=O)c1ccc(-c2cc(-c3ccc(S(C)(=O)=O)cc3)[n+](-c3cc(-c4ccccc4)c([O-])c(-c4ccccc4)c3)c(-c3ccc(S(C)(=O)=O)cc3)c2)cc1,> 100
13,Nc1ccn([C@H]2CO[C@@H](CO)[C@@H]2O)c(=O)n1,> 100
14,COc1ccc(C(C#N)NNC(=O)Cc2ccccc2)cc1OC (stereo not given),> 100
15,O=C(CC(C(=O)c1ccsc1)c1ccccc1)c1ccccc1 (stereo not given),75.9
16,CC(C)=CC1CC(=[N+]=[N-])C(=O)C1(C)C (stereo not given),> 100
17,COc1cccc(C2CC23C(=O)NC(=O)NC3=O)c1 (stereo not given),> 100
18,O=C(CSc1c2ccccc2nc2ccccc12)Nc1ccccc1-c1ccccc1NC(=O)CSc1c2ccccc2nc2ccccc12,> 40.3
19,CC1(C)OC[C@@H]([C@H](O)C2C=CC(=O)S2)O1 (stereo not given in full),> 100
20,CCOC(=O)Cc1ccc(Nc2nc3ccccc3nc2C(=O)OCC)cc1,> 100
21,O=S(=O)(c1ccccc1)N1N=C2c3ccccc3CCC[C@H]2C1c1ccccc1 (stereo not given in full),> 100
22,CCOC(=O)/C(=C/c1ccc(N(C)C)cc1)N(CC)CC,> 100
23,CC1CN=C(N(C(=O)Nc2ccccc2)c2ccc(Cl)c(Cl)c2)S1 (stereo not given),> 100
24,CC(=O)O[C@H]1CC[C@@]2(C)C(=CC[C@H]3[C@@H]4C/C(=C\c5ccc(N(C)C)cc5)[C@H](OC(C)=O)[C@@]4(C)CC[C@@H]32)C1,69
25,CC(C)(C)[Si](C)(C)Oc1ccc(C2CNC(=O)C23CCC(=O)N3Cc2ccccc2)cc1 (stereo not given),29.1

# Tested on: OVCAR-8 ovarian
# Test: NCI tumour cell line growth inhibition, 48 h
row,SMILES,TGI [µM]
1,COC(=O)[C@@]1(C)/C(=N/NS(=O)(=O)c2ccc(C)cc2)CCC[C@@H]1C,> 100
2,COc1ccc(OC)c(/C=C(/C#N)c2ccccc2)c1,> 100
3,COC(=O)C(C(=O)Cc1ccccc1[N+](=O)[O-])C(=O)OC,> 100
4,CCCCC/C=C1\CCC(CN(C)C)C1=O (stereo not given),> 41.7
5,O=C(Cn1c(-c2ccccc2)cc2ccccc21)N1CCCC1,> 100
6,Cc1ccc(Cl)c2c(=O)c3ccc(N)cc3sc12,52.6
7,C=CCN1CCC(O)(c2cc(C(=O)OCC)[nH]c2-c2cc(C)no2)C1 (stereo not given),> 100
8,CC1CN=C(N(C(=O)Nc2ccc(Cl)c(Cl)c2)c2ccccc2)S1 (stereo not given),> 100
9,CNCCCn1c2ccccc2c2c3c(c(-c4ccsc4)cc21)C(=O)NC3=O,2.07
10,C=C(C)C1CCC2(C)CC1c1c(c(C)cc3c1[nH]c1ccccc13)O2 (stereo not given),> 25
11,CN(CCN(C)C(=O)CCn1cc(F)c(=O)[nH]c1=O)C(=O)CCn1cc(F)c(=O)[nH]c1=O,> 100
12,CCOC1c2cc(C(C)C)c(O)c(O)c2[C@@]23CCCC(C)(C)C2C1OC3=O (stereo not given in full),> 100
13,C=CN1C(=O)[C@H](Oc2ccccc2)[C@@H]1c1ccccc1,83.6
14,CS(=O)(=O)c1ccc(-c2cc(-c3ccc(S(C)(=O)=O)cc3)[n+](-c3cc(-c4ccccc4)c([O-])c(-c4ccccc4)c3)c(-c3ccc(S(C)(=O)=O)cc3)c2)cc1,> 100
15,COc1ccc(C(C#N)NNC(=O)Cc2ccccc2)cc1OC (stereo not given),> 100
16,O=C(CC(C(=O)c1ccsc1)c1ccccc1)c1ccccc1 (stereo not given),> 100
17,CC(C)=CC1CC(=[N+]=[N-])C(=O)C1(C)C (stereo not given),> 100
